Source: the NIST ThermoML archive (doi:10.1021/je900311v)

Assay: excess molar enthalpy (molar enthalpy of mixing); xn = mol fraction of the nth substance listed
Details: 298.15 K, 101 kPa, Liquid, Calvet calorimetry

CCCCCCC(C)=O [2-octanone] + CCCCCCCCCCCCCC
Details	excess molar enthalpy [kcal/mol]
x1 = 0.0383	0.0506
x1 = 0.0737	0.0908
x1 = 0.1066	0.123
x1 = 0.1373	0.15
x1 = 0.1659	0.173
x1 = 0.1927	0.191
x1 = 0.2226	0.209
x1 = 0.2504	0.223
x1 = 0.2763	0.235
x1 = 0.3005	0.244
x1 = 0.3231	0.252
x1 = 0.3443	0.258
x1 = 0.3678	0.263
x1 = 0.3898	0.267
x1 = 0.4102	0.27
x1 = 0.4151	0.273
x1 = 0.4243	0.274
x1 = 0.4339	0.275
x1 = 0.444	0.275
x1 = 0.4546	0.276
x1 = 0.4657	0.276
x1 = 0.4756	0.276
x1 = 0.486	0.276
x1 = 0.4968	0.275
x1 = 0.5082	0.275
x1 = 0.52	0.274
x1 = 0.5304	0.272
x1 = 0.5412	0.271
x1 = 0.5525	0.27
x1 = 0.5643	0.268
x1 = 0.5765	0.265
x1 = 0.5893	0.263
x1 = 0.6004	0.26
x1 = 0.612	0.257
x1 = 0.624	0.254
x1 = 0.6364	0.25
x1 = 0.6494	0.246
x1 = 0.6629	0.241
x1 = 0.6753	0.237
x1 = 0.6882	0.232
x1 = 0.7016	0.226
x1 = 0.7155	0.22
x1 = 0.73	0.213
x1 = 0.7451	0.205
x1 = 0.7709	0.191
x1 = 0.7844	0.183
x1 = 0.7985	0.175
x1 = 0.8131	0.165
x1 = 0.8282	0.155
x1 = 0.8413	0.146
x1 = 0.8549	0.136
x1 = 0.8689	0.125
x1 = 0.8834	0.113
x1 = 0.8983	0.101
x1 = 0.9138	0.0873
x1 = 0.9271	0.0752
x1 = 0.9409	0.0622
x1 = 0.955	0.0482
x1 = 0.9695	0.0332
x1 = 0.9845	0.017

CCCCCCC(C)=O [2-octanone] + CCCCCCCCCCCCCCCC
Details	excess molar enthalpy [kcal/mol]
x1 = 0.0446	0.0598
x1 = 0.0854	0.107
x1 = 0.1228	0.144
x1 = 0.1573	0.175
x1 = 0.1926	0.202
x1 = 0.2251	0.223
x1 = 0.255	0.241
x1 = 0.2827	0.255
x1 = 0.3084	0.266
x1 = 0.3324	0.274
x1 = 0.3585	0.282
x1 = 0.3826	0.288
x1 = 0.405	0.292
x1 = 0.4258	0.295
x1 = 0.448	0.298
x1 = 0.4685	0.299
x1 = 0.4876	0.299
x1 = 0.4933	0.3
x1 = 0.5044	0.3
x1 = 0.5161	0.299
x1 = 0.5282	0.299
x1 = 0.541	0.298
x1 = 0.5519	0.297
x1 = 0.5633	0.295
x1 = 0.5751	0.294
x1 = 0.5874	0.291
x1 = 0.6003	0.289
x1 = 0.6138	0.286
x1 = 0.6257	0.283
x1 = 0.6508	0.275
x1 = 0.6642	0.27
x1 = 0.6781	0.265
x1 = 0.6926	0.259
x1 = 0.7048	0.254
x1 = 0.7174	0.248
x1 = 0.737	0.241
x1 = 0.7443	0.234
x1 = 0.7583	0.226
x1 = 0.7732	0.217
x1 = 0.7861	0.209
x1 = 0.7993	0.2
x1 = 0.8131	0.19
x1 = 0.8273	0.18
x1 = 0.84	0.17
x1 = 0.8531	0.159
x1 = 0.8666	0.148
x1 = 0.8805	0.135
x1 = 0.8949	0.122
x1 = 0.9075	0.109
x1 = 0.9204	0.0961
x1 = 0.9337	0.0819
x1 = 0.9473	0.0667
x1 = 0.9614	0.0499
x1 = 0.9739	0.0346
x1 = 0.9868	0.0177
